Reference: patent US12551424B2, “Oil-in-water type emulsification composition containing UV wavelength conversion substance” (Shiseido Company, Ltd., priority 2019, dated 2026)

Columns and labels:
Human dermal fibroblasts [1] = experiment: Cell activity (AlamarBlue) after UV irradiation through a solution of the UV wavelength conversion substance; assay type: cell-based; settings: UV 0, 10, 25, 50, 75 or 100 mJ/cm^2, FIG. 3
Description: (§1) A cell sample was prepared as follows: • 1. Human dermal fibroblasts and human skin keratinocytes purchased from Kurabo Industries Ltd. were used. A cell suspension (1 mL) stored in liquid nitrogen was thawed in a water bath (37° C.) to an extent that small ice pellets remained, and then diluted with 9 mL of warm medium. • 2. The diluted suspension was mixed gently and then transferred to a T75 flask and incubated overnight at 37° C. • 3. The next day, the medium was replaced with 10 mL of fresh medium. • 4. The medium was replaced periodically (once every 2 days for fibroblasts and once every 2 to 3 days for keratinocytes) and cell proliferation was continued. Meanwhile, the cells were observed using a microscope, and it was confirmed that the cells grew in the correct form. • 5. After the cells reached about 80% confluence, the cells were passaged. The cells were passaged by washing the cells once with 10 mL of warm PBS, adding 5 mL of warm trypsin to a T75 flask, covering the bottom of the flask with a trypsin solution, followed by aspirating at room temperature for 1 minute. • 6. The flask was allowed to stand in an oven at 37° C. for (maximum) 2 minutes for fibroblasts and (maximum) 7 minutes for keratinocytes. The cells were observed using a microscope and confirmed to be small and oval. • 7. Thereafter, the side of the T75 flask was lightly tapped to release the cells. […]

Human dermal fibroblasts [2] = experiment: Restoration of cell activity decreased by prior UV irradiation (AlamarBlue); assay type: cell-based; settings: FIG. 5
Description: as §1

Which results are given for C-phycocyanin?
cell activity (relative fluorescence intensity) (Human dermal fibroblasts [1]; 0.4% C-phycocyanin solution): the decrease in cell activity was suppressed; cell activity (relative fluorescence intensity) (Human dermal fibroblasts [1]; 2% C-phycocyanin solution): the cell activity was even increased; cell activity recovery effect, comparison of concentrations (Human dermal fibroblasts [2]; 0.4% versus 2% C-phycocyanin after 400 mJ/cm^2 pre-irradiation): equivalent at concentrations of 0.4% and 2%; cell activity (relative fluorescence intensity) of cells with once decreased activity (Human dermal fibroblasts [2]; pre-irradiation 400 mJ/cm^2 without substance, then UV 0-200 mJ/cm^2 through 0.4% or 2% C-phycocyanin): cell activity was recovered
